Experimental data: patent US20240002391A1, “4-ALKOXYPYRROLO[2,1-F][1,2,4]TRIAZINES AND PREPARATION AND USES THEREOF” (BioSplice Therapeutics, Inc., priority 2022, published 2024)

Legend:
[1] = target: recombinant DYRK1A kinase (Homo sapiens (Human), UniProt Q13627); experiment: DYRK1A kinase assay (Ser/Thr 18 peptide Z-lyte FRET); type: biochemical; details: DYRK1A kinase activity, Z-lyte Ser/Thr 18 peptide, 15 μM ATP; method text calls the value IC50; read-out: EC50 (the source's name)
Procedure, shortened: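 Steps: combine 0.25 μg/mL kinase, 15 μM ATP and 4 μM peptide with test compound; incubate 1 h at room temperature; add diluted development reagent for another hour; read coumarin and fluorescein emission at Ex 400. The emission ratio yields percent phosphorylation, from which IC50 is derived.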

[2] = tested on: Tau phosphorylation at Thr212 (pThr212) in HEK293T cells transfected with DYRK1A and MAPT; experiment: Tau phosphorylation phosphoTau (Thr212) AlphaLISA assay in HEK293T cells transfected with DYRK1A and MAPT; type: cell-based; details: HEK-293T, HEK293T cells transiently transfected with human DYRK1A and MAPT, compound treatment 18-24 hours, read-out: pTau (Thr212) EC50
Protocol: Representative compounds were screened using the assay procedure for tau phosphorylation activity described below.
HEK293T cells (ATCC, CRL3216) cultured in DMEM (Thermo Fisher Scientific, 10566024) supplemented with 10% FBS (Coming, 35-011—CV) and Penicillin/Streptomycin (Thermo Fisher Scientific, 15140163) were seeded in a 75 cm^2 flask at 8.1×10^6 cells/flask. The HEK293T cells were then transiently transfected with 5 μg DYRK1A (NM_001396) human untagged clone (OriGene, SC314641) and 2.5 μg MAPT (441 a.a. Tau gene) (NM_005910) human untagged clone (OriGene, TP313312) using Lipofectamine 3000 (Thermo Fisher Scientific, L30000015) and incubated for 20-30 hours in a humidified incubator at 37° C. and 5% CO^2. Post-incubation, HEK293T cells transfected with the DYRK1A and MAPT expression vectors were harvested and seeded in BioCoat poly-D lysine coated 96-well plates (Coming, 354461) at 3×10^4 cells/well.
The above synthesized compounds were screened using the cell assay procedure to assess decreased Tau phosphorylation at Thr212 (pThr212) described below.
Each compound was dissolved in DMSO (Sigma-Aldrich, D8418-100 mL) as a 10 mM stock. 10 mM stocks were serially diluted 1:3, 10-point dose-response curve and added to the cells with a final concentration ranging from 20 μM to 1.1 nM. Cells were treated with compounds in duplicate and incubated for 18-24 hours in a humidified incubator at 37° C. and 5% CO^2.
Following the overnight compound treatment, cells were lysed with 1X Alpha Surefire Ultra Lysis Buffer (Perkin Elmer, ALSU-LB-100ML) complemented with 1X Halt Phosphatase Inhibitor Cocktail (Thermo Fisher Scientific, 78427) and 1X Halt Protease Inhibitor Cocktail (Thermo Fisher Scientific, 78438). Lysates were spun down at 12,000 g for 10 min to remove any cellular debris and 5 μL of lysates were dispensed into a 384-well Opti-Plate (Perkin Elmer, 6007290) for the measurement of Tau phosphorylation in the phosphoTau (Thr212) AlphaLISA assay. Donor antibody, biotinylated HT7Tau (Thermo Fisher Scientific, MN1000B), and acceptor antibody, pThr212Tau (Thermo Fisher Scientific, 44740G) were both added to the cell lysates at a final concentration of 3 nM and incubated for 1 hour at room temperature. Following incubation of the lysates with the donor and acceptor antibodies, anti-rabbit IgG(Fc specific) AlphaLISA acceptor beads (Perkin Elmer, AL104C) were added at a 10 ug/mL final concentration and incubated for 1 hour at room temperature protected from light. Lastly, AlphaScreen streptavidin donor beads (PerkinElmer, 6760002) were added at 40 ug/mL final concentration and incubated for 1 hour at room temperature protected from light. Plates were read at […] on the EnVision Multilabel Plate Reader (Perkin Elmer). The phospho-Tau (Thr212) AlphaLISA signal was used to plot, draw the curve fitting, and determine each compound's EC50 in Prism (GraphPad).

Row | Compound | IC50 [1] [nM] | EC50 [2] [nM]
1 | COc1nc(N[C@H]2CC[C@](C)(O)CC2)nn2ccc(-c3ccc4nnn(C)c4c3)c12 [Compound 3, trans-4-((4-Methoxy-5-(1-methyl-1H-benzo[d][1,2,3]triazol-6-yl)pyrrolo[2,1-f][1,2,4]triazin-2-yl)amino)-1-methylcyclohexan-1-ol] | 1.5 | 197
2 | COc1nc(N[C@H]2CC[C@](C)(O)CC2)nn2ccc(-c3ccc4ncnn4c3)c12 [Compound 194, trans-4-((5-([1,2,4]Triazolo[1,5-a]pyridin-6-yl)-4-methoxypyrrolo[2,1-f][1,2,4]triazin-2-yl)amino)-1-methylcyclohexan-1-ol] | 2.2 | 107
3 | COc1nc(NC2CCC3(CC2)COC3)nn2ccc(-c3cnc4nccn4c3)c12 [Compound 276, 5-(Imidazo[1,2-a]pyrimidin-6-yl)-4-methoxy-N-(2-oxaspiro[3.5]nonan-7-yl)pyrrolo[2,1-f][1,2,4]triazin-2-amine] | 0.6 | 10.1
4 | COc1nc(N[C@H]2CCN(C3COC3)C[C@H]2F)nn2ccc(-c3ccc4ncccc4c3)c12 [Compound 318, N-((3R,4S)-3-Fluoro-1-(oxetan-3-yl)piperidin-4-yl)-4-methoxy-5-(quinolin-6-yl)pyrrolo[2,1-f][1,2,4]triazin-2-amine] | 4.2 | 75.4
5 | C[C@]1(O)CC[C@H](Nc2nc(OC3COC3)c3c(-c4ccc5nccnc5c4)ccn3n2)CC1 [Compound 392, trans-1-Methyl-4-((4-(oxetan-3-yloxy)-5-(quinoxalin-6-yl)pyrrolo[2,1-f][1,2,4]triazin-2-yl)amino)cyclohexan-1-ol] | 1.4 | 25.2
6 | COc1nc(N[C@H]2CC[C@H](NC(C)=O)CC2)nn2ccc(-c3ccc4nccn4c3)c12 [Compound 54, N-(trans-4-((5-(Imidazo[1,2-a]pyridin-6-yl)-4-methoxypyrrolo[2,1-f][1,2,4]triazin-2-yl)amino)cyclohexyl)acetamide] | 1.2 | 25.7
7 | COc1nc(N[C@H]2CC[C@](C)(O)CC2)nn2ccc(-c3ccn4nccc4c3)c12 [Compound 20, trans-4-((4-Methoxy-5-(pyrazolo[1,5-a]pyridin-5-yl)pyrrolo[2,1-f][1,2,4]triazin-2-yl)amino)-1-methylcyclohexan-1-ol] | 3.4 | 107
8 | COc1nc(N[C@@H]2CCC(F)(F)C2)nn2ccc(-c3cnc4nccn4c3)c12 [Compound 943, (R)—N-(3,3-Difluorocyclopentyl)-5-(imidazo[1,2-a]pyrimidin-6-yl)-4-methoxypyrrolo[2,1-f][1,2,4]triazin-2-amine] | 3.6 | 57.5
9 | COc1nc(N[C@H]2CC[C@](C)(O)CC2)nn2ccc(-c3cnc4nccn4c3)c12 [Compound 257, trans-4-((5-(Imidazo[1,2-a]pyrimidin-6-yl)-4-methoxypyrrolo[2,1-f][1,2,4]triazin-2-yl)amino)-1-methylcyclohexan-1-ol] | 0.4 | 15.1
10 | COc1nc(N[C@H]2CC[C@](C)(O)CC2)nn2ccc(-c3ccc4nccn4c3)c12 [Compound 56, trans-4-((5-(Imidazo[1,2-a]pyridin-6-yl)-4-methoxypyrrolo[2,1-f][1,2,4]triazin-2-yl)amino)-1-methylcyclohexan-1-ol] | 1.3 | 35.7
11 | COc1nc(N[C@H]2CCN(C)C[C@H]2F)nn2ccc(-c3ccc4ncccc4c3)c12 [Compound 310, N-((3R,4S)-3-Fluoro-1-methylpiperidin-4-yl)-4-methoxy-5-(quinolin-6-yl)pyrrolo[2,1-f][1,2,4]triazin-2-amine] | 4.7 | 109
